The values that follow come from patent US9815854B2, “3-(3H-imidazo[4,5-B]pyridin-2-yl)-1H-pyrazolo[3,4-C]pyridine and therapeutic uses thereof” (Samumed, LLC, priority 2014, dated 2017).

Where only a bound is given, the exact number is not on record here.

Assay [1] concerns Wnt activity (Sp5-Luc reporter, TCF/LEF binding sites) in SW480 colon carcinoma cells. Description: Sp5-Luc Wnt reporter gene screening assay in SW480 colon carcinoma cells. The note with it: Homo sapiens. Type of assay: cell-based, human. The method in brief:
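SW480 cells stably transduced with a lentiviral luciferase reporter driven by a Sp5 promoter with eight TCF/LEF sites were plated at 10,000/well in 10% FCS medium. Luminescence was normalised to DMSO and IC50 derived by four-parameter fit.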
Background: Reporter assays use an easily measured gene product as a stand-in for the process of interest.

Assay [2] relates to primary human mesenchymal stem cells (hMSCs). Description: Chondrogenesis induction screen in primary human mesenchymal stem cells (nodule imaging, Rhodamine B/Nile Red). It is filed as cell-based. To be noted: 6 days; for EC (100% of TGF-b3 activity): Homo sapiens, Mesenchymal stem cells, 144 h, concentration required to induce chondrogenesis equivalent to TGF-β3 (10 ng/mL), read-out: Conc (nM) of 100% TGF-β3 activity; for Max. Activity as % TGF-β3 activity: TGF-β3 (10 ng/mL) positive control. On the procedure:
The above synthesized compounds were screened using primary human mesenchymal stem cells (hMSCs) to determine their ability to induce chondrogenesis (process by which cartilage is developed).
Human Mesenchymal Stern Cell Culture: Primary human mesenchymal stem cells (hMSCs) were purchased from Lonza (Walkersville, Md.) and expanded in Mesenchymal Stem Cell Growth Media (Lonza). Cells between passage 3 and 6 were used for the experiments.
Compound Screening: Each compound was dissolved in DMSO as a 10 mM stock and used to prepare compound source plates. Serial dilution (1:3, 6-point dose-response curves from 2700 nM to 10 nM) and compound transfer was performed using the ECHO 550 (Labcyte, Sunnyvale, Calif.) into 96-well clear bottom assay plates (Greiner Bio-One) with appropriate DMSO backfill for a final DMSO concentration of 0.03%. hMSCs were plated at 20,000 cells/well in 250 μL/well incomplete Chondrogenic induction Medium (Lonza; DMEM, dexamethasone, ascorbate, insulin-transferrin-selenium [ITS supplement], gentamycin-amphotericin [GA-1000], sodium pyruvate, proline and L-glutamine). TGF-β3 (10 ng/mL) was used as a positive control for differentiation while negative control wells were treated with 75 nL DMSO for normalization and calculating EC50 values. Cells were incubated at 37° C. and 5% CO2 for 6 days. To image chondrogenic nodules, the cells were fixed using 4% formaldehyde (Electron Microscopy Sciences), and stained with 2 μg/mL Rhodamine B (Sigma-Aldrich) and 20 μM Nile Red (Sigma-Aldrich) [Johnson K., et.al, A Stem Cell-Based Approach to Cartilage Repair, Science, (2012), 336(6082), 717-721]. The nodules imaged (4 images per well at 4× magnification) by excitation at 531 nm and emission at 625 nm and quantified using the CellInsight CX5 (Thermo Scientific). Number of nodules in each well was normalized to the average of 3 DMSO treated wells on the same plate using Excel (Microsoft Inc.). The normalized averages (fold change over DMSO) of 3 replicate wells for each compound concentration were calculated. Due to solubility limitations of some of the compounds, curve fitting was incomplete leading to inaccurate EC50 determinations.
Using TGF-β3 as a positive control, the concentration of test compounds required to induce equivalent levels of chondrogenesis is reported. In addition, the maximum activity of each compound and the respective dose that each compound reached maximum chondrogenesis activity is reported.

Assay [3] relates to primary human fibroblasts derived from IPF patients (LL29 cells). Description: Inhibition of the fibrotic process in TGF-β1-treated primary human fibroblasts from IPF patients (αSMA staining). The note with it: Fibroblast, 96 h, TGF-β1 20 ng/mL, 4 days, read-out: Inhibition of fibrosis EC50. Type of assay: cell-based. The method in brief:
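IPF-derived LL29 lung fibroblasts, 1,500 per well in F12 with 1% FBS, treated with compound (10 μM to […], 0.1% DMSO) and TGF-β1 20 ng/mL for 4 days at 37 °C. αSMA-positive live cells imaged and normalised to TGF-β1 controls; EC50 by nonlinear regression over triplicate wells.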

For the compound `Fc1cccc(-c2ccnc3[nH]c(-c4n[nH]c5cnc(-c6cncc(CN7CCC(F)(F)C7)c6)cc45)nc23)c1` [Compound 25, 5-(5-((3,3-Difluoropyrrolidin-1-yl)methyl)pyridin-3-yl)-3-(7-(3-fluorophenyl)-3H-imidazo[4,5-b]pyridin-2-yl)-1H-pyrazolo[3,4-c]pyridine], the IC50 in assay [1] amounted to 22.1 nM. For the same compound, the EC (100% of TGF-b3 activity) in assay [2] is 112 nM. Moreover, the EC50 in assay [3] is 20 nM.
Compound `CC(C)Nc1cncc(-c2cc3c(-c4nc5c(-c6ccc(F)cc6)ccnc5[nH]4)n[nH]c3cn2)c1` [Compound 38, 5-(3-(7-(4-Fluorophenyl)-3H-imidazo[4,5-b]pyridin-2-yl)-1H-pyrazolo[3,4-c]pyridin-5-yl)-N-isopropylpyridin-3-amine] returned an IC50 in assay [1] of 10.3 nM. Further, in assay [2], the “Max. Activity as % TGF-β3 activity” value turned out to be 300% and the EC (100% of TGF-b3 activity) was found to be 74.9 nM. In assay [3], the EC50 stood at 34 nM.
`CC(C)(C)CC(=O)Nc1cncc(-c2cc3c(-c4nc5c(-c6ccccc6F)ccnc5[nH]4)n[nH]c3cn2)c1` [Compound 68, N-(5-(3-(7-(2-Fluorophenyl)-3H-imidazo[4,5-b]pyridin-2-yl)-1H-pyrazolo[3,4-c]pyridin-5-yl)pyridin-3-yl)-3,3-dimethylbutanamide]: the 50% inhibitory concentration (IC50) in assay [1] came to 24.4 nM. Moreover, in assay [2], the EC (100% of TGF-b3 activity) turned out to be 9.3 nM. The EC50 in assay [3] amounted to 90 nM.
In the same order, the values of `FC1(F)CCN(Cc2cncc(-c3cc4c(-c5nc6c(N7CCCCC7)ccnc6[nH]5)n[nH]c4cn3)c2)C1` [Compound 181, 5-(5-((3,3-Difluoropyrrolidin-1-yl)methyl)pyridin-3-yl)-3-(7-(piperidin-1-yl)-3H-imidazo[4,5-b]pyridin-2-yl)-1H-pyrazolo[3,4-c]pyridine] are 16.7 nM, 25.6 nM and 53 nM.
Regarding `c1cncc(-c2cc3c(-c4nc5cccnc5[nH]4)n[nH]c3cn2)c1` [Compound 238], in assay [1], the IC50 was 16.1 nM. Further, in assay [2], the “Max. Activity as % TGF-β3 activity” value is given as 30% and the EC (100% of TGF-b3 activity) is 113 nM. Also, the EC50 in assay [3] came to 369 nM.
For the compound `CC(C)(C)C(=O)Nc1cncc(-c2cc3c(-c4nc5c(-c6ccsc6)ccnc5[nH]4)n[nH]c3cn2)c1` [Compound 268, N-(5-(3-(7-(Thiophen-3-yl)-3H-imidazo[4,5-b]pyridin-2-yl)-1H-pyrazolo[3,4-c]pyridin-5-yl)pyridin-3-yl)pivalamide], in assay [1], the IC50 came to 9.7 nM. For the same compound, the EC (100% of TGF-b3 activity) in assay [2] turned out to be 25.8 nM. Moreover, the EC50 in assay [3] was 141 nM.
In assay [1], `CCCC(=O)Nc1cncc(-c2cc3c(-c4nc5c(-c6cccs6)ccnc5[nH]4)n[nH]c3cn2)c1` [Compound 329, N-(5-(3-(7-(Thiophen-2-yl)-3H-imidazo[4,5-b]pyridin-2-yl)-pyrazolo[3,4-c]pyridin-5-yl)pyridin-3-yl)butyramide] displayed an IC50 of 17.5 nM. Moreover, in assay [2], the “Max. Activity as % TGF-β3 activity” value worked out at 300% and the EC (100% of TGF-b3 activity) came out at 110 nM. For the same compound, the EC50 in assay [3] is 34 nM.
For `CCCC(=O)Nc1cncc(-c2cc3c(-c4nc5c(-c6ccc(C)s6)ccnc5[nH]4)n[nH]c3cn2)c1` [Compound 381, N-(5-(3-(7-(5-Methylthiophen-2-yl)-3H-imidazo[4,5-b]pyridin-2-yl)-1H-pyrazolo[3,4-c]pyridin-5-yl)pyridin-3-yl)butyramide], the 50% inhibitory concentration (IC50) in assay [1] worked out at 9.5 nM. Moreover, the EC (100% of TGF-b3 activity) in assay [2] came to 59.6 nM. Also, in assay [3], the 50% effective concentration (EC50) is 18 nM.
As to `Cc1ccncc1-c1cc2c(-c3nc4c(-c5cc(F)cc(CNS(C)(=O)=O)c5)ccnc4[nH]3)n[nH]c2cn1` [Compound 421, N-(3-Fluoro-5-(2-(5-(4-methylpyridin-3-yl)-1H-pyrazolo[3,4-c]pyridin-3-yl)-3H-imidazo[4,5-b]pyridin-7-yl)benzyl)methanesulfonamide], in assay [1], the IC50 came out at 23.3 nM. Moreover, in assay [2], the “Max. Activity as % TGF-β3 activity” value was 30% and the EC (100% of TGF-b3 activity) was 70 nM.
Take `O=C(CC1CCNCC1)Nc1cncc(-c2cc3c(-c4nc5c(-c6cccc(F)c6)ccnc5[nH]4)n[nH]c3cn2)c1` [Compound 945]: the IC50 in assay [1] stood at 463 nM. The EC (100% of TGF-b3 activity) in assay [2] worked out at 54.7 nM. Besides, the EC50 in assay [3] came out at 40 nM.
On to `COc1cncc(-c2cc3c(-c4nc5c(-c6cccc(F)c6)ccnc5[nH]4)n[nH]c3cn2)c1` [Compound 948, 3-(7-(3-Fluorophenyl)-3H-imidazo[4,5-b]pyridin-2-yl)-5-(5-methoxypyridin-3-yl)-1H-pyrazolo[3,4-c]pyridine], for which the IC50 in assay [1] was found to be 850 nM. The EC50 in assay [3] turned out to be 632 nM.
In assay [1], `Oc1cncc(-c2cc3c(-c4nc5c(-c6cccc(F)c6)ccnc5[nH]4)n[nH]c3cn2)c1` [Compound 949, 5-(3-(7-(3-Fluorophenyl)-3H-imidazo[4,5-b]pyridin-2-yl)-1H-pyrazolo[3,4-c]pyridin-5-yl)pyridin-3-ol] came in with an IC50 of 111 nM. For the same compound, in assay [2], the “Max. Activity as % TGF-β3 activity” value was 100% and the EC (100% of TGF-b3 activity) amounted to 143 nM. Moreover, in assay [3], the EC50 worked out at 31 nM.
`Fc1cccc(-c2ccnc3[nH]c(-c4n[nH]c5cnc(-c6cnccn6)cc45)nc23)c1` [Compound 954, 3-(7-(3-Fluorophenyl)-3H-imidazo[4,5-b]pyridin-2-yl)-5-(pyrazin-2-yl)-1 H-pyrazolo[3,4-c]pyridine] returned an IC50 in assay [1] of 661 nM. The EC50 in assay [3] is not below 9990 nM.
`COc1cc(F)cc(-c2ccnc3[nH]c(-c4n[nH]c5cnc(-c6cncc(NC(=O)CC(C)C)c6)cc45)nc23)c1` [Compound 1394, N-(5-(3-(7-(3-Fluoro-5-methoxyphenyl)-3H-imidazo[4,5-b]pyridin-2-yl)-1H-pyrazolo[3,4-c]pyridin-5-yl)pyridin-3-yl)-3-methyl butanamide] registered an IC50 in assay [1] of more than 10000 nM. In assay [3], the half-maximal effective concentration (EC50) came to 495 nM.

By IC50 is commonly meant the midpoint of a concentration-inhibition curve. By EC50 is commonly meant the concentration that produces a half-maximal response.
